Experimental data from US20200163984A1, “USE OF ISOVALERYL SPIRAMYCIN I, II AND/OR III IN MANUFACTURING MEDICAMENT FOR TREATING AND/OR PREVENTING TUMOR, AND MEDICAMENT” (SHENYANG FUYANG PHARMACEUTICAL TECHNOLOGY CO., LTD., priority 2017, published 2020).

Assays:
[1] = tested on: transplanted tumor of human pancreatic cancer cell PANC-1; assay: PANC-1 transplanted tumor in nude mice; settings: for Tumor Volume (mm3) (d 1): d1
[2] = tested on: transplanted tumor of human renal clear cell adenocarcinoma cell 786-O; assay: 786-O transplanted tumor in nude mice; settings: for Tumor Volume (mm3) (d 1): d1
How it was run: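 Nude mice inoculated subcutaneously with 786-O cells in matrigel; at ≥100 mm^3 tumors, groups of 6 dosed intragastrically at 25, 50 or 100 mg/kg for 30 days. Tumor size measured every 3 days (V=a×b^2/2, RTV, T/C); tumors weighed at sacrifice for growth inhibition rate versus model group.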

[3] = tested on: transplanted tumor of human renal cell adenocarcinoma cell 769-P; assay: 769-P transplanted tumor in nude mice; settings: for Tumor Volume (mm3) (d 1): d1
How it was run: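 Nude mice inoculated subcutaneously with 769-P cells in matrigel; once tumors reached ≥100 mm^3, dosed intragastrically at 25, 50 or 100 mg/kg for 30 days (6 mice/group). Tumor volume (a×b^2/2) tracked every 3 days for RTV and T/C; tumor growth inhibition from tumor weight versus model group after sacrifice.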

[4] = Spleen index of A549 lung cancer tumor-bearing mice; settings: n = 6
[5] = PANC-1, 12.5 mg/kg (low dose) i.g. 30 days
[6] = PANC-1, 25 mg/kg (medium dose) i.g. 30 days
[7] = PANC-1, 50 mg/kg (high dose) i.g. 30 days
[8] = 786-O, high dose (100 mg/kg in method) i.g. 30 days
[9] = 786-O, low dose (25 mg/kg in method) i.g. 30 days
[10] = 786-O, medium dose (50 mg/kg in method) i.g. 30 days
[11] = 769-P, high dose (100 mg/kg in method) i.g. 30 days
[12] = 769-P, low dose (25 mg/kg in method) i.g. 30 days
[13] = 769-P, medium dose (50 mg/kg in method) i.g. 30 days

SMILES: CCC(=O)O[C@@H]1CC(=O)O[C@H](C)C/C=C/C=C/[C@H](O[C@H]2CC[C@H](N(C)C)[C@@H](C)O2)[C@H](C)C[C@H](CC=O)[C@H](O[C@@H]2O[C@H](C)[C@@H](O[C@H]3C[C@@](C)(O)[C@@H](OC(=O)CC(C)C)[C@H](C)O3)[C@H](N(C)C)[C@H]2O)[C@H]1OC [Isovaleryl spiramycin III, isovaleryl spiramycin III]
- Inhibition Rate (tumor growth inhibition rate) [1, 5]: 26.75%
- Tumor Weight [1, 5]: 1.99 ± 0.81 g
- Inhibition Rate (tumor growth inhibition rate) [1, 6]: 39.09%
- Tumor Weight [1, 6]: 1.66 ± 0.66 g
- Inhibition Rate (tumor growth inhibition rate) ([1]; PANC-1, 25 mg/kg (medium dose) i.g. 30 days, listed as isovaleryl spiramycin III): 39.08%
- Inhibition Rate (tumor growth inhibition rate) [1, 7]: 61.78%
- Tumor Weight [1, 7]: 1.03 ± 0.54 g
- Relative Tumor Proliferation Rate (T/C) ([1]; PANC-1, high dose i.g. 30 days): 34.91%
- Relative Tumor Proliferation Rate (T/C) ([1]; PANC-1, low dose i.g. 30 days): 75.03%
- tumor volume and relative tumor volume compared with the model group ([1]; PANC-1, low, medium and high doses, P<0.05): significantly lower
- Relative Tumor Proliferation Rate (T/C) ([1]; PANC-1, medium dose i.g. 30 days): 54.92%
- Relative Tumor Proliferation Rate (T/C) ([1]; PANC-1 nude mice, 12.5 mg/kg): 75.03%
- Relative Tumor Volume (RTV) ([1]; PANC-1 nude mice, 12.5 mg/kg): 13.13 ± 3.15
- Tumor Volume (mm3) (d 1) ([1]; PANC-1 nude mice, 12.5 mg/kg): 137.99 ± 20.99 mm3
- Tumor Volume (mm3) (d30) ([1]; PANC-1 nude mice, 12.5 mg/kg): 1758.49 ± 129.06 mm3
- Relative Tumor Proliferation Rate (T/C) ([1]; PANC-1 nude mice, 25 mg/kg): 54.92%
- Relative Tumor Volume (RTV) ([1]; PANC-1 nude mice, 25 mg/kg): 9.61 ± 1.66
- Tumor Volume (mm3) (d 1) ([1]; PANC-1 nude mice, 25 mg/kg): 109.95 ± 13.42 mm3
- Tumor Volume (mm3) (d30) ([1]; PANC-1 nude mice, 25 mg/kg): 1043.33 ± 113.01 mm3
- Relative Tumor Proliferation Rate (T/C) ([1]; PANC-1 nude mice, 50 mg/kg): 34.90%
- Relative Tumor Volume (RTV) ([1]; PANC-1 nude mice, 50 mg/kg): 5.17 ± 0.64
- Tumor Volume (mm3) (d 1) ([1]; PANC-1 nude mice, 50 mg/kg): 113.14 ± 9.02 mm3
- Tumor Volume (mm3) (d30) ([1]; PANC-1 nude mice, 50 mg/kg): 684.21 ± 115.00 mm3
- mouse weight compared with the model group ([1]; mouse, in vivo): no significant changes
- Inhibition Rate (%) ([2]; 786-O nude mice, 25 mg/kg): 35.80%
- Relative Tumor Proliferation Rate (T/C) ([2]; 786-O nude mice, 25 mg/kg): 73.13%
- Relative Tumor Volume (RTV) ([2]; 786-O nude mice, 25 mg/kg): 18.90 ± 3.60
- Tumor Weight ([2]; 786-O nude mice, 25 mg/kg): 1.38 ± 0.42 g
- Tumor Volume (mm3) (d 1) ([2]; 786-O nude mice, 25 mg/kg): 106.47 ± 6.86 mm3
- Tumor Volume (mm3) (d30) ([2]; 786-O nude mice, 25 mg/kg): 1479.90 ± 458.97 mm3
- Inhibition Rate (%) ([2]; 786-O nude mice, 50 mg/kg): 52.14%
- Relative Tumor Proliferation Rate (T/C) ([2]; 786-O nude mice, 50 mg/kg): 51.33%
- Relative Tumor Volume (RTV) ([2]; 786-O nude mice, 50 mg/kg): 9.76 ± 1.44
- Tumor Weight ([2]; 786-O nude mice, 50 mg/kg): 1.02 ± 0.27 g
- Tumor Volume (mm3) (d 1) ([2]; 786-O nude mice, 50 mg/kg): 96.82 ± 8.52 mm3
- Tumor Volume (mm3) (d30) ([2]; 786-O nude mice, 50 mg/kg): 944.60 ± 112.60 mm3
- Inhibition Rate (%) ([2]; 786-O nude mice, 100 mg/kg): 62.49%
- Relative Tumor Proliferation Rate (T/C) ([2]; 786-O nude mice, 100 mg/kg): 34.20%
- Relative Tumor Volume (RTV) ([2]; 786-O nude mice, 100 mg/kg): 6.18 ± 0.61
- Tumor Weight ([2]; 786-O nude mice, 100 mg/kg): 0.80 ± 0.05 g
- Tumor Volume (mm3) (d 1) ([2]; 786-O nude mice, 100 mg/kg): 103.26 ± 9.71 mm3
- Tumor Volume (mm3) (d30) ([2]; 786-O nude mice, 100 mg/kg): 635.26 ± 78.22 mm3
- Relative Tumor Proliferation Rate (T/C) [2, 8]: 34.20%
- tumor growth inhibition rate [2, 8]: 62.49%
- Relative Tumor Proliferation Rate (T/C) [2, 9]: 73.13%
- tumor growth inhibition rate [2, 9]: 35.80%
- tumor volume and relative tumor volume compared with the model group ([2]; 786-O, low, medium and high doses, P<0.05): significantly lower
- Relative Tumor Proliferation Rate (T/C) [2, 10]: 51.33%
- tumor growth inhibition rate [2, 10]: 52.14%
- mouse weight compared with the model group ([2]; mouse, in vivo): no significant changes
- Body Weight (g) (d1) ([2]; mouse, in vivo, 25 mg/kg): 22.72 ± 0.78 g
- Body Weight (g) (d30) ([2]; mouse, in vivo, 25 mg/kg): 23.85 ± 0.89 g
- Body Weight (g) (d1) ([2]; mouse, in vivo, 50 mg/kg): 21.43 ± 1.08 g
- Body Weight (g) (d30) ([2]; mouse, in vivo, 50 mg/kg): 22.33 ± 1.09 g
- Body Weight (g) (d1) ([2]; mouse, in vivo, 100 mg/kg): 22.28 ± 1.72 g
- Body Weight (g) (d30) ([2]; mouse, in vivo, 100 mg/kg): 23.43 ± 1.69 g
- Inhibition Rate (%) ([3]; 769-P nude mice, 25 mg/kg): 40.87%
- Relative Tumor Proliferation Rate (T/C) ([3]; 769-P nude mice, 25 mg/kg): 61.59%
- Relative Tumor Volume (RTV) ([3]; 769-P nude mice, 25 mg/kg): 11.37 ± 1.469
- Tumor Weight ([3]; 769-P nude mice, 25 mg/kg): 1.22 ± 0.46 g
- Tumor Volume (mm3) (d 1) ([3]; 769-P nude mice, 25 mg/kg): 146.32 ± 43.02 mm3
- Tumor Volume (mm3) (d30) ([3]; 769-P nude mice, 25 mg/kg): 1663.32 ± 445.50 mm3
- Inhibition Rate (%) ([3]; 769-P nude mice, 50 mg/kg): 60.50%
- Relative Tumor Proliferation Rate (T/C) ([3]; 769-P nude mice, 50 mg/kg): 51.59%
- Relative Tumor Volume (RTV) ([3]; 769-P nude mice, 50 mg/kg): 9.52 ± 1.67
- Tumor Weight ([3]; 769-P nude mice, 50 mg/kg): 0.82 ± 0.06 g
- Tumor Volume (mm3) (d 1) ([3]; 769-P nude mice, 50 mg/kg): 180.43 ± 51.70 mm3
- Tumor Volume (mm3) (d30) ([3]; 769-P nude mice, 50 mg/kg): 1717.76 ± 524.33 mm3
- Inhibition Rate (%) ([3]; 769-P nude mice, 100 mg/kg): 64.46%
- Relative Tumor Proliferation Rate (T/C) ([3]; 769-P nude mice, 100 mg/kg): 36.55%
- Relative Tumor Volume (RTV) ([3]; 769-P nude mice, 100 mg/kg): 6.56 ± 0.28
- Tumor Weight ([3]; 769-P nude mice, 100 mg/kg): 0.73 ± 0.08 g
- Tumor Volume (mm3) (d 1) ([3]; 769-P nude mice, 100 mg/kg): 104.38 ± 12.92 mm3
- Tumor Volume (mm3) (d30) ([3]; 769-P nude mice, 100 mg/kg): 684.88 ± 62.28 mm3
- Relative Tumor Proliferation Rate (T/C) [3, 11]: 35.55%
- tumor growth inhibition rate [3, 11]: 64.46%
- Relative Tumor Proliferation Rate (T/C) [3, 12]: 61.59%
- tumor growth inhibition rate [3, 12]: 40.87%
- tumor volume and relative tumor volume compared with the model group ([3]; 769-P, low, medium and high doses, P<0.05): significantly lower
- Relative Tumor Proliferation Rate (T/C) [3, 13]: 51.59%
- tumor growth inhibition rate [3, 13]: 60.50%
- mouse weight compared with the model group ([3]; mouse, in vivo): no significant changes
- Body Weight (g) (d1) ([3]; mouse, in vivo, 25 mg/kg): 23.09 ± 1.90 g
- Body Weight (g) (d30) ([3]; mouse, in vivo, 25 mg/kg): 22.72 ± 0.78 g
- Body Weight (g) (d1) ([3]; mouse, in vivo, 50 mg/kg): 22.90 ± 1.00 g
- Body Weight (g) (d30) ([3]; mouse, in vivo, 50 mg/kg): 21.43 ± 1.08 g
- Body Weight (g) (d1) ([3]; mouse, in vivo, 100 mg/kg): 20.49 ± 1.14 g
- Body Weight (g) (d30) ([3]; mouse, in vivo, 100 mg/kg): 22.28 ± 1.72 g
- Spleen Index (%) ([4]; dose 13 mg/kg): 0.32 ± 0.02%
- Spleen Index (%) ([4]; dose 26 mg/kg): 0.33 ± 0.11%
- Spleen Index (%) ([4]; dose 52 mg/kg): 0.35 ± 0.09%
